US10703748B2, “Diazanaphthalen-3-yl carboxamides and preparation and use thereof” (Samumed, LLC, priority 2017, dated 2020)
Like-named read-outs stand apart in the source and are kept apart here.

Legend:
[1] = system: Wnt-responsive Sp5-Luc reporter in SW480 colon carcinoma cells; assay: Screening assay for Wnt activity (Sp5-Luc reporter gene assay); conditions: for inhibition at 10 µM: SW480, read-out: percent inhibition at 10 μM
DYRK1A kinase = DYRK1A kinase (Homo sapiens, UniProt Q13627); assay: DYRK1A kinase activity (Ser/Thr 18 peptide Z-lyte FRET assay); format: biochemical; conditions: recombinant DYRK1A, 30 μM ATP, one hour at room temperature;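 note: kinase activity read as coumarin/fluorescein emission ratio after development step, with unphosphorylated and phosphorylated peptide forms setting 0% and 100% controls, values from dose-response curves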
Method: Representative compounds were screened using the assay procedure for DYRK1A kinase activity as described below.
Each compound was dissolved in DMSO as a 10 mM stock and used to prepare compound source plates.
This is a non-radioactive assay using fluorescence resonance energy transfer (FRET) between coumarin and fluorescein to detect kinase activity which is represented as a ratio of coumarin emission/fluorescein emission.
The mixture was allowed to incubate with the representative compounds for one hour at room temperature. All reactions were performed in duplicate. Unphosphorylated (“0% Control”) and phosphorylated (“100% control”) forms of Ser/Thr 18 served as control reactions. Additionally, an 11-point dose-response curve of Staurosporine (1 uM top) was run to serve as a positive compound control.
After incubation, Development Reagent A was diluted in Development Buffer then added to the reaction and allowed to further incubate for one hour at room temperature.
Dose-response curves were generated and inhibitory concentration (IC50) values were calculated using non-linear regression curve fit in the Dotmatics' Studies Software (Bishops Stortford, UK).

GSK3β kinase = GSK3β kinase (Homo sapiens, UniProt P49841); assay: GSK3β kinase activity (Ser/Thr 09 peptide Z-lyte FRET assay); format: biochemical; conditions: recombinant kinase, 46 μM ATP, one hour at room temperature; read-out: EC50
Sequence of GSK3β kinase (P49841 whole entry): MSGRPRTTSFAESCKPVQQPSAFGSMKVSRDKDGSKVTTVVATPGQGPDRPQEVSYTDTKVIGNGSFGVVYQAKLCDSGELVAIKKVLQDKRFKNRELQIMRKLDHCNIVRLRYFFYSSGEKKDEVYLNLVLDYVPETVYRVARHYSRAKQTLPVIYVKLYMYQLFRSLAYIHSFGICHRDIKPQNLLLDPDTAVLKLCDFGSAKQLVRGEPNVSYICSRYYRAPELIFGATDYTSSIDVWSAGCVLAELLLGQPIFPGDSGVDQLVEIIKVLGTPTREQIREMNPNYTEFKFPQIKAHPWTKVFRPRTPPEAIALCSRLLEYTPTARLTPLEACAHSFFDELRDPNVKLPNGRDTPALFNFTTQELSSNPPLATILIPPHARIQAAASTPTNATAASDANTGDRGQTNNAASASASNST

[2] = system: α-smooth muscle actin (aSMA) positive LL29 cells; assay: Inhibition of the fibrotic process: αSMA staining in TGF-β1 treated LL29 fibroblasts from IPF patients; conditions: for inhibition at 10 µM: read-out: percentage in parentheses after EC50 >10
[3] = system: SW480 colon carcinoma cells; assay: Cell viability assay (CellTiter-Glo); conditions: for inhibition at 10 µM: SW480, read-out: percent inhibition at 10 μM
Method: Representative compounds were screened using the assay procedure to assess the effect on cell viability as described below.
SW480 colon carcinoma cells were transduced with a lentiviral vector expressing luciferase with a human Sp5 promoter consisting of a sequence of eight TCF/LEF binding sites. […] These stably transduced SW480 cells were expanded in cell culture and used for all further screening activities. Each compound was dissolved in DMSO as a 10 mM stock and used to prepare compound source plates.
For the Cell Viability Assays, the cells were plated at 2,000 cells/well in 384-well plates with a DMEM medium containing 1% fetal bovine serum, and 1% Penicillin-Streptomycin and incubated for four days hours at 37° C. and 5% CO2. Eight replicates of DMSO-treated cells served as controls and cells treated with compound were performed in duplicate.
After incubation, 10 μL of CellTiter-Glo (Promega) was added to each well allowed to incubate for approximately 12 minutes. This reagent “results in cell lysis and generation of a luminescent signal proportional to the amount of ATP present. The amount of ATP is directly proportional to the number of cells present in culture, in agreement with previous reports. The CellTiter-Glo Assay generates a “glow-type” luminescent signal, produced by the luciferase reaction (Promega.com)”.
Dose-response curves were generated and EC50 concentration values were calculated using non-linear regression curve fit in the GraphPad Prism (San Diego, Calif.) or Dotmatics' Studies Software (Bishops Stortford, UK).

IL-6 = IL-6 inhibition in LPS-stimulated human peripheral blood mononuclear cells (HTRF); conditions: Homo sapiens, PBMC; for EC50: 22 h; for inhibition at 10 µM: read-out: percentage in parentheses after EC50 >10
[4] = system: secreted cytokines TNFα, IL-6 and KC-GRO; assay: Secreted cytokines in Lipopolysaccharide-stimulated BV-2 cells (Table 9 does not say which cytokine); format: cell-based, mouse; conditions: read-out: EC50

| Compound | EC50 ([1]; Homo sapiens, SW480) [nM] | EC50 (DYRK1A kinase) [nM] | EC50 (GSK3β kinase) [nM] | EC50 ([2]; Homo sapiens, Fibroblast, 96 h) [nM] | EC50 ([3]; Homo sapiens, SW480, 96 h) [nM] | EC50 (IL-6) [nM] | EC50 ([4]; Mus musculus, BV-2, 5 h) [nM] | inhibition at 10 µM (IL-6) [%] | inhibition at 10 µM ([1]; Homo sapiens) [%] | inhibition at 10 µM ([3]; Homo sapiens) [%] | inhibition at 10 µM ([2]; Homo sapiens, Fibroblast) [%] | EC50 ([1]; SW480 Sp5-Luc reporter cells, 36 to 48 hours) [nM] | percent inhibition at 10 μM ([1]; at 10 μM, given for EC50 of >10 μM, SW480 Sp5-Luc reporter) [%] | EC50 ([2]; LL29 fibroblasts from IPF patients, TGF-β1 20 ng/mL, 4 days, curves from 10 μM to 0.94 nM) [nM] | percentage in parentheses after EC50 >10 ([2]; LL29 fibroblasts, TGF-β1, given beside >10 μM, meaning not given) [%] | EC50 ([3]; SW480 cells, four days, CellTiter-Glo) [nM] | percent inhibition at 10 μM ([3]; at 10 μM, given for EC50 of >10 μM, SW480 cell viability) [%] | EC50 ([4]; BV-2 cells, LPS 250 ng/mL 5 hours, compounds overnight, 10 μM to […], cytokine not named in Table 9) [nM] |
| --- | --- | --- | --- | --- | --- | --- | --- | --- | --- | --- | --- | --- | --- | --- | --- | --- | --- | --- |
| CN1CCC(Oc2ccc(C(=O)Nc3cc4nc(-c5cnn(C)c5)ccc4cn3)cc2)CC1 [Compound 145, N-(2-(1-methyl-1H-pyrazol-4-yl)-1,6-naphthyridin-7-yl)-4-((1-methylpiperidin-4-yl)oxy)benzamide] | 259 | 5 | 2000 | 369 | 535 | 3250 | 212 | – | – | – | – | – | – | – | – | – | – | – |
| CN1CCN(c2cc(C(=O)Nc3cc4nc(-c5cnn(C)c5)ccc4cn3)ccn2)CC1 [Compound 147, N-(2-(1-Methyl-1H-pyrazol-4-yl)-1,6-naphthyridin-7-yl)-2-(4-methylpiperazin-1-yl)isonicotinamide] | 102 | 7 | > 10000 | 410 | 311 | 2200 | 122 | – | – | – | – | – | – | – | – | – | – | – |
| CN1CCN(c2ccc(C(=O)Nc3cc4nc(-c5cnn(C)c5)ccc4cn3)cn2)CC1 [Compound 151, N-(2-(1-Methyl-1H-pyrazol-4-yl)-1,6-naphthyridin-7-yl)-6-(4-methylpiperazin-1-yl)nicotinamide] | 498 | 2 | 571 | 432 | 3680 | 3680 | 88 | – | – | – | – | – | – | – | – | – | – | – |
| Cn1cc(-c2ccc3cnc(NC(=O)c4ccnc(OC5CCNCC5)c4)cc3n2)cn1 [Compound 153, N-(2-(1-Methyl-1H-pyrazol-4-yl)-1,6-naphthyridin-7-yl)-2-(piperidin-4-yloxy)isonicotinamide] | 111 | 4 | 6000 | 1100 | 353 | 2070 | 159 | – | – | – | – | – | – | – | – | – | – | – |
| CN(C)CCNc1cc(C(=O)Nc2cc3nc(-c4cnn(C)c4)ccc3cn2)ccn1 [Compound 164, 2-((2-(Dimethylamino)ethyl)amino)-N-(2-(1-methyl-1H-pyrazol-4-yl)-1,6-naphthyridin-7-yl)isonicotinamide] | 585 | 6 | 4010 | 717 | 2770 | > 10000 | 165 | 17.6 | – | – | – | – | – | – | – | – | – | – |
| CN(C)Cc1ccc(C(=O)Nc2cc3nc(-c4cnn(C)c4)ccc3cn2)cc1 [Compound 170, 4-((Dimethylamino)methyl)-N-(2-(1-methyl-1H-pyrazol-4-yl)-1,6-naphthyridin-7-yl)benzamide] | 396 | 6 | 1870 | 1300 | 3370 | 8090 | 55 | – | – | – | – | – | – | – | – | – | – | – |
| CN1CCN(Cc2cccc(C(=O)Nc3cc4nc(-c5cnn(C)c5)ccc4cn3)c2)CC1 [Compound 172, N-(2-(1-Methyl-1H-pyrazol-4-yl)-1,6-naphthyridin-7-yl)-3-((4-methylpiperazin-1-yl)methyl)benzamide] | 445 | 13 | 765 | 393 | 1010 | > 10000 | 214 | 32.7 | – | – | – | – | – | – | – | – | – | – |
| CN1CCc2ccc(C(=O)Nc3cc4nc(-c5cnn(C)c5)ccc4cn3)cc2C1 [Compound 202, 2-Methyl-N-(2-(1-methyl-1H-pyrazol-4-yl)-1,6-naphthyridin-7-yl)-1,2,3,4-tetrahydroisoquinoline-7-carboxamide] | 686 | 9 | > 10000 | 530 | 9310 | > 10000 | 300 | 5.1 | – | – | – | – | – | – | – | – | – | – |
| Cn1cc(-c2ccc3cnc(NC(=O)c4ccc5ccoc5c4)cc3n2)cn1 [Compound 209, N-(2-(1-Methyl-1H-pyrazol-4-yl)-1,6-naphthyridin-7-yl)benzofuran-6-carboxamide] | 485 | 5 | > 10000 | 436 | 3150 | > 10000 | 864 | 3.1 | – | – | – | – | – | – | – | – | – | – |
| Cn1cc(-c2ccc3cnc(NC(=O)c4ccc5nccnc5c4)cc3n2)cn1 [Compound 216, N-(2-(1-Methyl-1H-pyrazol-4-yl)-1,6-naphthyridin-7-yl)quinoxaline-6-carboxamide] | 447 | 7 | 4850 | 598 | 3160 | > 10000 | 378 | 0 | – | – | – | – | – | – | – | – | – | – |
| Cn1cc(-c2ccc3cnc(NC(=O)c4cnn(C5CCNCC5)c4)cc3n2)cn1 [Compound 228, N-(2-(1-Methyl-1H-pyrazol-4-yl)-1,6-naphthyridin-7-yl)-1-(piperidin-4-yl)-1H-pyrazole-4-carboxamide] | 76 | 6 | 753 | 376 | 105 | 723 | 207 | – | – | – | – | – | – | – | – | – | – | – |
| O=C(Nc1cc2cc(-c3cncc(NCC4(F)CNC4)n3)cnc2cn1)C1CC1 [Compound 3591, N-(3-(6-(((3-Fluoroazetidin-3-yl)methyl)amino)pyrazin-2-yl)-1,7-naphthyridin-6-yl)cyclopropanecarboxamide] | > 10000 | 10 | 2270 | – | > 10000 | > 10000 | 2400 | 4.4 | 1.3 | 6.1 | – | – | – | – | – | – | – | – |
| CC(C)Oc1ccc(C(=O)Nc2ncc3ccc(-c4cnc5n4CCN(C)C5)cc3n2)cc1 [Compound 4577, 4-Isopropoxy-N-(7-(7-methyl-5,6,7,8-tetrahydroimidazo[1,2-a]pyrazin-3-yl)quinazolin-2-yl)benzamide] | > 10000 | 175 | > 10000 | > 10000 | > 10000 | > 10000 | – | 2.6 | 28.9 | 19.7 | 42.7 | – | – | – | – | – | – | – |
| N#CC(c1cncc(-c2ccc3cnc(NC(=O)C4CC4)nc3c2)c1)N1CCC(O)CC1 (stereo not drawn) [Compound 4594, N-(7-(5-(Cyano(4-hydroxypiperidin-1-yl)methyl)pyridin-3-yl)quinazolin-2-yl)cyclopropanecarboxamide] | > 10000 | 35 | 528 | 3250 | > 10000 | > 10000 | – | 2.4 | 35.6 | 15 | – | – | – | – | – | – | – | – |
| CN1CC(COc2cncc(-c3ccc4cnc(NC(=O)c5ccc(F)cc5)nc4c3)n2)C1 [Compound 4595, 4-Fluoro-N-(7-(6-((1-methylazetidin-3-yl)methoxy)pyrazin-2-yl)quinazolin-2-yl)benzamide] | > 10000 | 38 | > 10000 | > 10000 | 4570 | > 10000 | – | 5.3 | 20.1 | – | 2.8 | – | – | – | – | – | – | – |
| CN1CCN(c2ncc(C(=O)Nc3cc4cc(-c5cnn(C)c5)ncc4cn3)s2)CC1 [Compound 4602, N-(6-(1-Methyl-1H-pyrazol-4-yl)-2,7-naphthyridin-3-yl)-2-(4-methylpiperazin-1-yl)thiazole-5-carboxamide] | – | – | – | – | – | – | – | – | – | – | – | > 10000 | 10.9 | > 10000 | 14.3 | > 10000 | 26.1 | 2900 |
